Test [1] relates to p-ERK of PC-9 cells. In words: p-ERK HTRF assay in PC-9 cells. The test is classed as cell-based. To be noted: PC-9 lung cancer cells, 1 hour treatment, read-out: IC50, inhibitory activity on p-ERK of PC-9 cells. The procedure, abridged:
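PC-9 lung cancer cells plated overnight, then exposed 1 h at 37 °C to a 10-point compound series (10,000–[…] nM final, 0.1% DMSO). After 1 h lysis, phospho-ERK1/2 (Thr202/Tyr204) measured by HTRF at 665/615 nm. Percent inhibition calculated from max and min signals.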
(In general: Time-resolved FRET reads energy transfer from a long-lived donor to a nearby acceptor.)

Test [2] has as its target KRAS-G12C/SOS1 (Homo sapiens (Human), UniProt Q07889). Kind of test: Detection of inhibitory effects of compounds on KRAS-G12C/SOS1 (KRASG12C/SOS binding kit, HTRF). To be noted: Em665/620, read-out: IC50, inhibitory activity on interaction of KRAS-G12C/SOS1. In outline:
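HTRF binding of Tag2-KRAS-G12C to Tag1-SOS1 with compounds (10-point 3-fold dilution from 5,000 nM) for 15 min at room temperature, then anti-Tag1-Tb and anti-Tag2-XL665 for 120 min at 4° C. Em665/620 read; inhibition normalised to control wells, IC50 from variable-slope log(inhibitor) fit.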

Like-named read-outs stand apart in the source and are kept apart here. Some results are limits rather than exact numbers.

The text below walks through data of patent US20250042857A1, “SOS1 Inhibitor With Pyrido-Fused Six-Membered Ring Structure” (HAIHE BIOPHARMA CO., LTD., priority 2021, published 2025).

Sequence of KRAS-G12C/SOS1 (Q07889 whole entry, stated change not applied): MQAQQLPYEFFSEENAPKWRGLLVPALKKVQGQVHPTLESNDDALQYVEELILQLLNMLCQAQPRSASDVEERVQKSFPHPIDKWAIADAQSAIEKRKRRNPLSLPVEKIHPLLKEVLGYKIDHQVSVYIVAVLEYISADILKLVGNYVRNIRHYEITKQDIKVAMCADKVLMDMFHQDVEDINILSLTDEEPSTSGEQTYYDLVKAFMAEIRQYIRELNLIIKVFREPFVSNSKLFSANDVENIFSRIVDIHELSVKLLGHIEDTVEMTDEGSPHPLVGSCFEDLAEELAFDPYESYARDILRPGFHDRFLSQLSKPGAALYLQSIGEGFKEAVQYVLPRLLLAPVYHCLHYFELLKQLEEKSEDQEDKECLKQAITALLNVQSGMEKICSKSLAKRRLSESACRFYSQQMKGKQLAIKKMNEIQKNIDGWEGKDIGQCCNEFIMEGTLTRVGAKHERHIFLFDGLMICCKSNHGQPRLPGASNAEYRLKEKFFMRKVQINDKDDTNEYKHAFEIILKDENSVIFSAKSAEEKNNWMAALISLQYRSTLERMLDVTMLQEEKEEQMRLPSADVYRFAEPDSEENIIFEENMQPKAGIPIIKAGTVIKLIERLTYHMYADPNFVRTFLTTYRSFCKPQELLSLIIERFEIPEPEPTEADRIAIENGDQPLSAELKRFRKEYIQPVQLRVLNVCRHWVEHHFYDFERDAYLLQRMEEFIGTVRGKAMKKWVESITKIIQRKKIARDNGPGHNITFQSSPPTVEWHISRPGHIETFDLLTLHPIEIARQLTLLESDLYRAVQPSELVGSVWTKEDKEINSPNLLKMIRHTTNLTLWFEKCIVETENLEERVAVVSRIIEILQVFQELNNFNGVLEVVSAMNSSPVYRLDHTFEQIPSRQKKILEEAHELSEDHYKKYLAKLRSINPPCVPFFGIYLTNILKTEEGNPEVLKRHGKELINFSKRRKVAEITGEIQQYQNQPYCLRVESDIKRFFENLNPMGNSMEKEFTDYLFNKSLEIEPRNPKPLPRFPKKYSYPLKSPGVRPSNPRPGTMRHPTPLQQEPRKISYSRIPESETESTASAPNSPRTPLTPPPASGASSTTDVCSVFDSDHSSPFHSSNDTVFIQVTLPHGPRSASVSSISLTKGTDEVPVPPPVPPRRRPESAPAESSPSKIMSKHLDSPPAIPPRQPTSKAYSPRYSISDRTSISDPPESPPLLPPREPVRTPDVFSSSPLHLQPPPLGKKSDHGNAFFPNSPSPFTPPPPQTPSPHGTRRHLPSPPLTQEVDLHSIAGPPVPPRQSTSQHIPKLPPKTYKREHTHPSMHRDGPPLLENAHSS

On to `C[C@H](O)C(=O)N1CCC(O)(c2cc3c(N[C@H](C)c4cccc(C(F)F)c4F)c(F)cnc3cn2)CC1` [Compound B-124], for which the IC50 in test [1] (Homo sapiens, PC-9, 1 h) was at most 300 nM; in test [2], at most 100 nM.
For the compound `C[C@@H](Nc1ccnc2cnc(C3(O)CCC(C(C)(C)O)CC3)cc12)c1cccc(C(F)(F)F)c1F` (single isomer, unassigned) [Compound B-115-P1], the IC50 in test [1] is above 1000 nM; in test [2] it was 100 to 500 nM.
For `CC(=O)N1CCN(c2cc3c(N[C@H](C)c4cccc(C(F)F)c4F)ccnc3c(-c3cnn(C)c3)n2)CC1` [Compound B-169], the IC50 in test [1] (Homo sapiens, PC-9, 1 h) was at most 300 nM; in test [2] it was at most 100 nM.
On the same counts, the results for `COc1nc(C2(O)CCN(C(=O)CO)CC2)cc2c(N[C@H](C)c3cccc(C(F)F)c3F)ccnc12` [Compound B-173] are at most 300 nM and at most 100 nM.
On the same counts, the results for `C[C@@H](Nc1ccnc2cnc(N3CCCCS3(=O)=O)cc12)c1cccc(C(F)F)c1F` [Compound B-60] are at most 300 nM and at most 100 nM.
Consider `C[C@H](O)C(=O)N1CCC(O)(c2cc3c(N[C@H](C)c4cccc(C(F)(F)F)c4F)ccnc3cn2)CC1` [Compound B-126], for which the IC50 in test [1] (Homo sapiens, PC-9, 1 h) was at most 300 nM; in test [2], at most 100 nM.
Turning to `C[C@@H](Nc1ccnc2cnc(C3(O)CCN(Cc4ccccn4)CC3)cc12)c1cccc(C(F)F)c1F` [Compound B-159], the IC50 in test [1] (Homo sapiens, PC-9, 1 h) was 300 to 1000 nM; in test [2], at most 100 nM.
On the same counts, the results for `C[C@@H](Nc1ccnc2cnc(C3(O)CCN(C(=O)C4CC4)CC3)cc12)c1cccc(C(F)F)c1F` [Compound B-128] are at most 300 nM and at most 100 nM.
Taken in the same sequence, the figures for `C[C@@H](Nc1ccnc2cnc(N3CCC(C(=O)O)CC3)cc12)c1cccc(C(F)F)c1F` [Compound B-35] were above 1000 nM and at most 100 nM.
With `COC1(c2cc3c(N[C@H](C)c4cccc(C(F)F)c4F)ccnc3cn2)CCC(O)CC1` (some centres unmarked) [Compound B-82], the IC50 in test [1] (Homo sapiens, PC-9, 1 h) is at most 300 nM; in test [2], at most 100 nM.
On to `COC1(c2cc3c(N[C@H](C)c4cccc(C(F)F)c4F)ccnc3cn2)CCOCC1` [Compound B-104], for which the IC50 in test [1] (Homo sapiens, PC-9, 1 h) is 300 to 1000 nM; in test [2], at most 100 nM.
For `CC(=O)N[C@@H]1CCN(c2cc3c(N[C@H](C)c4cccc(C(F)F)c4F)ccnc3cn2)C1` [Compound B-32], the IC50 in test [1] (Homo sapiens, PC-9, 1 h) was at most 300 nM; in test [2], at most 100 nM.
For the compound `C[C@@H](Nc1c(F)cnc2cnc(C3(O)CCN(C(=O)CO)CC3)cc12)c1cccc(C(F)F)c1F` [Compound B-123], the IC50 in test [1] (Homo sapiens, PC-9, 1 h) is at most 300 nM; in test [2], at most 100 nM.
`C[C@@H](Nc1ccnc2cnc(C3(O)CCN(C(=O)Cc4ccncc4)CC3)cc12)c1cccc(C(F)F)c1F` [Compound B-139]: the IC50 in test [1] (Homo sapiens, PC-9, 1 h) was at most 300 nM; in test [2], at most 100 nM.
Consider `C[C@@H](Nc1ccnc2cnc(C3(O)CCN(CCO)CC3)cc12)c1cccc(C(F)F)c1F` [Compound B-117], for which the IC50 was 300 to 1000 nM in test [1] (Homo sapiens, PC-9, 1 h) and at most 100 nM in test [2].
With `C[C@@H](Nc1ccnc2cnc(C3(O)CCN(C(=O)[C@H]4CCOC4)CC3)cc12)c1cccc(C(F)F)c1F` [Compound B-134], the IC50 in test [1] (Homo sapiens, PC-9, 1 h) was at most 300 nM; in test [2], at most 100 nM.
As for `COCC(=O)N1CCC(O)(c2cc3c(N[C@H](C)c4cccc(C(F)F)c4F)ccnc3cn2)CC1` [Compound B-114], the IC50 in test [1] (Homo sapiens, PC-9, 1 h) was at most 300 nM; in test [2] it was at most 100 nM.
On the same counts, the results for `CC(=O)N1CCN(c2cc3c(N[C@H](C)c4cccc(C(F)(F)F)c4C)ccnc3cn2)CC1` [Compound B-50] are at most 300 nM and at most 100 nM.
On to `CC(=O)N1CCC(c2cc(F)c3nccc(N[C@H](C)c4cccc(C(F)F)c4F)c3c2)CC1` [Compound A-99], for which the IC50 is at most 300 nM in test [1] (Homo sapiens, PC-9, 1 h) and at most 100 nM in test [2].
With `CC(=O)N1CCN(c2cc3c(N[C@H](C)c4cccc(C(F)F)c4F)ccnc3cn2)[C@@H](CO)C1` [Compound B-45], the IC50 was at most 300 nM in test [1] (Homo sapiens, PC-9, 1 h) and at most 100 nM in test [2].
`C[C@@H](Nc1ccnc2cnc(C3(O)CCN(C(=O)c4cccnc4)CC3)cc12)c1cccc(C(F)F)c1F` [Compound B-130]: the IC50 in test [1] (Homo sapiens, PC-9, 1 h) is 300 to 1000 nM; in test [2], at most 100 nM.
Taken in the same sequence, the figures for `CC(=O)N1C2CCC1CC(c1cc3c(N[C@H](C)c4cccc(C(F)F)c4F)ccnc3c(C)n1)C2` (some centres unmarked) [Compound B-67] were 300 to 1000 nM and at most 100 nM.
Turning to `CC(=O)N1CCN(c2cc(F)c3nccc(N[C@H](C)c4cccc(C(F)F)c4F)c3c2)CC1` [Compound A-100], the IC50 is at most 300 nM in test [1] (Homo sapiens, PC-9, 1 h) and at most 100 nM in test [2].
Turning to `C[C@@H](Nc1ccnc2cnc(C3(O)CCN(C(=O)C(C)(C)O)CC3)cc12)c1cccc(C(F)F)c1F` [Compound B-121], the IC50 in test [1] (Homo sapiens, PC-9, 1 h) is at most 300 nM; in test [2], at most 100 nM.
For the compound `C[C@@H](Nc1ccnc2cnc(N3CCC(O)(CO)CC3)cc12)c1cccc(C(F)F)c1F` [Compound B-74], the IC50 in test [1] (Homo sapiens, PC-9, 1 h) was at most 300 nM; in test [2], at most 100 nM.
Consider `COc1c(C2=CCN(C(C)=O)CC2)cc2c(N[C@H](C)c3cccc(C(F)F)c3F)ccnc2c1F` [Compound A-101], for which the IC50 in test [1] (Homo sapiens, PC-9, 1 h) was 300 to 1000 nM; in test [2] it was at most 100 nM.
As to `CC(=O)N1C2CCC1CC(O)(c1cc3c(N[C@H](C)c4cccc(C(F)F)c4F)ccnc3c(C)n1)C2` (some centres unmarked) [Compound B-69], the IC50 was above 1000 nM in test [1] (Homo sapiens, PC-9, 1 h) and at most 100 nM in test [2].
On the same counts, the results for `C[C@@H](Nc1ccnc2cnc(C3(O)CCN(C(=O)COC(F)F)CC3)cc12)c1cccc(C(F)F)c1F` [Compound B-141] are at most 300 nM and at most 100 nM.
With `CC(=O)N1CCN(c2cc3c(N[C@H](C)c4cccc(C(F)F)c4F)ccnc3cn2)C(=O)C1` [Compound B-53], the IC50 in test [1] (Homo sapiens, PC-9, 1 h) is 300 to 1000 nM; in test [2] it was at most 100 nM.
As to `C[C@@H](Nc1ccnc2c(-c3cnn(C)c3)nc(C3(O)CCN(C(=O)CO)CC3)cc12)c1cccc(C(F)F)c1F` [Compound B-171], the IC50 in test [1] (Homo sapiens, PC-9, 1 h) is at most 300 nM; in test [2], at most 100 nM.
Taken in the same sequence, the figures for `COc1nc(N2CCN(C(C)=O)CC2)cc2c(N[C@H](C)c3cccc(C(F)F)c3F)ccnc12` [Compound B-73] were at most 300 nM and at most 100 nM.
For `C[C@@H](Nc1ccnc2cnc(C3(O)CCN(c4ncc(C#N)cn4)CC3)cc12)c1cccc(C(F)F)c1F` [Compound B-156], the IC50 was at most 300 nM in test [1] (Homo sapiens, PC-9, 1 h) and at most 100 nM in test [2].
On the same counts, the results for `C[C@@H](Nc1ccnc2cnc(N3CCC(O)CC3=O)cc12)c1cccc(C(F)F)c1F` (some centres unmarked) [Compound B-54] are 300 to 1000 nM and at most 100 nM.
As for `CC(=O)N1CCN(c2cc3c(N[C@H](C)c4cccc(C(F)F)c4F)ccnc3c(C)n2)[C@@H](CO)C1` [Compound B-63], the IC50 in test [1] (Homo sapiens, PC-9, 1 h) was at most 300 nM; in test [2], at most 100 nM.
As to `C[C@@H](Nc1ccnc2cnc(C3(O)CCN(C(=O)N4CC[C@@H](O)C4)CC3)cc12)c1cccc(C(F)F)c1F` [Compound B-162], the IC50 in test [1] (Homo sapiens, PC-9, 1 h) was 300 to 1000 nM; in test [2], at most 100 nM.
Take `CC(=O)N1CCN(c2cc3c(N[C@H](C)c4cccc(C(F)F)c4F)ccnc3c(C)n2)CC1` [Compound B-62]: the IC50 was at most 300 nM in test [1] (Homo sapiens, PC-9, 1 h) and at most 100 nM in test [2].
Consider `C[C@@H](Nc1ccnc2cnc(C3(O)CCN(C(=O)CO)CC3)cc12)c1cccc(C(F)(F)F)c1F` [Compound B-118], for which the IC50 is at most 300 nM in test [1] (Homo sapiens, PC-9, 1 h) and at most 100 nM in test [2].
